Where two headings read alike, the source gives them in different places.
Assays:
Format in all cases: cell-based, mouse
[1] = test system: murine CD4+ CD25− T cells, CD8+ T cells, B cells; assay: T and B cell activation, proliferation, cytokine production and Th1/Th2/iTreg differentiation
Description: FIG. 2A, Left, is a graph showing dose response analyses performed on activated carboxyfluorescein succinimidyl ester (CFSE)-labeled CD4^+CD25^− T cells in the presence of DMSO, 40 nM MAZ1310, or increasing concentrations of halofuginone (HF) (1.25-40 nM). CFSE dilution and cell surface CD25 expression were determined 48 hours after activation. Intracellular cytokine production was determined on day 4 or 5 following restimulation with phorbol myristate acetate (PMA) and ionomycin. […] FIG. 2A, Right is a graph showing dose-response analyses of HF effects on CD8^+ T cell or B cell function. Cells were activated in the presence of DMSO, 40 nM MAZ1310, or increasing concentrations of HF (1.25-40 nM). CFSE dilution, cell surface CD25 expression, and intracellular cytokine production were determined as above 2-5 days after activation.
At approximately 10-fold higher concentrations (>20 nM), HF induced a general inhibition of T and B cell activation, proliferation, and effector function (FIG. 2A, 2B).
(§1) Purified CD4^+ CD25^− T cells were activated in vitro as previously described (Djuretic et al., Nat. Immunol. 8:145, 2007) using 0.3 μg/ml hamster anti-mouse CD3 (clone 145-2C11) (ATCC—Manassas, Va.) and 0.5 μg/ml hamster anti-mouse CD28 (BD Pharmingen—San Jose, Calif.). Activated cell cultures were differentiated using the following combinations of cytokines and antibodies: iTreg-recombinant human TGFβ1 (3 ng/ml—R&D systems, Minneapolis, Minn.), Th17-TGFβ1 (3 ng/ml) plus recombinant mouse IL-6 (30 ng/ml—R&D systems). Th1 and Th2 differentiation was performed as previously described (Djuretic et al., Nat. Immunol. 8:145, 2007). Human IL-2 supernatant (National Cancer Institute) was used in culture at 0.01 U/ml and was added at 48 hours-post activation when T cells were split into tissue culture wells lacking CD3 and CD28 antibodies, with the exception of Th17 cultures that were maintained in the absence of exogenous IL-2. CD8^+ T cells were activated with 1 μg/ml anti-CD3 and 1 μg/ml anti-CD28 and were expanded in 0.1 U/ml IL-2 until day 6 post activation. CD43-depleted B cells were activated in vitro by culturing with 25 μg/ml LPS (Sigma—St. Louis, Mo.) for 3-4 days in the presence or absence of TGFβ. All reagents (see below) were added at the time of T cell activation and again at 48 hours post activation unless indicated otherwise. For some experiments, purified CD4^+ CD25^− T cells, CD8^+ T cells or B cells were labeled with 1 μM CFSE (Invitrogen) prior to activation in accordance with manufacturer's instructions. Human T cell activation was performed by plating purified monocytes in a 96-well flat bottom plate at a concentration of 2×10^4 cells per well in complete medium overnight. 10^5 purified human memory T cells were added to monocyte cultures in the presence of soluble anti-CD3/anti-CD28 beads (Dynabeads, Invitrogen). T cells were expanded in the presence HF or MAZ1310 for up to 6 days.
Cytokines secreted into media supernatant were measured using the mouse Th1/Th2 cytometric bead array (CBA—BD Pharmingen) in accordance with manufacturers instructions. Briefly, CD4+ CD25− T cells were activated in anti-CD3/anti-CD28-coated tissue culture wells (see above) and supernatants were collected at the indicated times.
For detection of intracellular cytokines in murine cells, cultured T or B cells were stimulated with 10 nM PMA (Sigma) and […] (Sigma) for 4-5 hours in the presence of […] brefeldin A (Sigma). Stimulated cells were harvested, washed with PBS and fixed with PBS plus 4% paraformaldehyde at room temperature for 20 minutes. Cells were then washed with PBS, permeabilized with PBS supplemented with 1% BSA and 0.5% saponin (Sigma) at room temperature for 10 minutes before cytokine-specific antibodies were added and incubated with cells for an additional 20 minutes at room temperature. […]

[2] = test system: murine CD4+ CD25− T cells; assay: Th17 differentiation of activated CD4+ CD25− T cells (TGFβ plus IL-6; IL-17+ IFNγ− cells); details: for rescue of HF-inhibited Th17 differentiation by added amino acids: 1 mM amino acids; for IC50: Mus musculus, T-cell
Description: as §1
MAZ1310 (Kamberov, Ph.D. Dissertation, Harvard University, 2008) was generated by chemical derivatization of halofuginone and was used at equal concentrations as a negative control. HF and MAZ1310 were prepared as 100 mM stock solutions in DMSO and diluted to the indicated concentrations. SB-431542 (Inman et al., Mol. Pharmacol. 62:65, 2002) (Tocris bioscience—Ellisville, Mo.) was prepared as a 10 mM stock solution in DMSO and was used in culture at 10 μM. L-tryptophanol was prepared as a 20 mM stock solution in 0.1 M NaOH, pH 7.4 and was used at 0.2 mM. For amino acid starvation experiments, T cells were activated and differentiated as above in D-MEM medium without L-cysteine and L-methionine (Invitrogen—Carlsbad, Calif.), or D-MEM medium without L-leucine. Stocks containing 20 mM L-cysteine (Sigma—St. Louis, Mo.) plus 10 mM L-methionine (Sigma), or 400 mM L-leucine (Sigma) were prepared in ddH2O, pH 1.0 and were added to medium at the indicated concentrations.
For detection of intracellular cytokines in murine cells, cultured T or B cells were stimulated with 10 nM PMA (Sigma) and […] (Sigma) for 4-5 hours in the presence of 10 mM brefeldin A (Sigma). Stimulated cells were harvested, washed with PBS and fixed with PBS plus 4% paraformaldehyde at room temperature for 20 minutes. Cells were then washed with PBS, permeabilized with PBS supplemented with 1% BSA and 0.5% saponin (Sigma) at room temperature for 10 minutes before cytokine-specific antibodies were added and incubated with cells for an additional 20 minutes at room temperature.

Xbp-1 splicing = assay: ER stress / unfolded protein response (Xbp-1 splicing) in T cells; details: for Xbp-1 splicing: TCR activation 4 hours, 1 μg/ml tunicamycin, 10 nM HF
Description: FIG. 5. […] FIG. 5A depicts western blot and Xbp1 splicing analysis of CD4^+ CD25^− T cells left unstimulated, or activated through the TCR for 4 hours in complete medium (complete—200 μM Cys/100 μM Met), medium lacking Cys/Met (−Cys/Met) or complete medium containing 1 μg/ml tunicamycin, 10 nM HF or 10 nM MAZ1310. Western blotting was performed on whole cell extracts with the indicated antibodies. Xbp-1 splicing assay was performed on cDNA synthesized from T cell cultures.

[3] = low concentrations of HF (1-10 nM)
[4] = low concentrations of tunicamycin

O=C(CC1NCCCC1O)Cn1cnc2cc(Br)c(Cl)cc2c1=O (racemic) [HF, halofuginone] was tested, and the “concentration inducing general inhibition of T and B cell activation, proliferation, and effector function” value [1] was greater than 20 nM, the CD25 upregulation [1, 3] was “did not affect” and the T cell proliferation [1, 3] was “did not affect”. The “production of IL-2, TNF, or IFNγ” value [1, 3] was “did not affect”, the “Th1, Th2 or iTreg differentiation (IFNγ, IL-4, or Foxp3 expression)” value ([1]; low-dose HF) was “failed to modulate” and the “IL-17 expression with IFNγ and IL-4 blocked by neutralizing antibodies” value [2] was “reduced IL-17 expression”. For the same molecule, the “Th17 differentiation in T cells transduced with RORγt-expressing vs empty retroviruses” value [2] was “inhibited Th17 differentiation as effectively”, the “IL-17 expression in cells with equivalent number of cell divisions (CFSE dilution)” value ([2]; 5 nM, 10 nM HF) was “inhibited IL-17 expression in a dose-dependent manner” and the “IL-17 expression in T cells lacking Foxp3” value ([2]; 10 nM HF) was “strongly repressed IL-17 expression”. The “Th17 differentiation of T cells expressing STAT3C” value ([2]; 10 nM HF) was “remained capable of differentiating into Th17 cells”, the “upregulation of RORγt or RORα during Th17 differentiation” value ([2]; 10 nM HF) was “did not interfere” and the “time of HF addition for inhibition of IL-17 expression” value ([2]; 10 nM HF added at times after activation) was “most pronounced when HF was added during a 12-hour window at the start of the culture period”. The “rescue of HF-inhibited Th17 differentiation by added amino acids” value ([2]; 10 nM HF) was “only proline rescued Th17 differentiation”, the “rescue of HF-inhibited Th17 differentiation by added amino acids” value ([2]; 10 nM HF, listed as halofuginone) was “Proline, and no other added amino acid, rescues the inhibition of Th17 differentiation” and the “Foxp3 expression in T cells differentiated with TGFβ plus IL-6” value ([2]; 10 nM HF, day 3) was “enhanced Foxp3 expression”. The “expression of IL-17 and IL-17f mRNA” value ([2]; 10 nM, 4 days, Th17 conditions) was “impaired”, the IC50 ([2]; 96 h, restimulation on day 4-5, read-out: IC50 for Th17 differentiation (percentage of IL-17+ IFNγ− cells)) was 3.6 nM and the IC50 ([2]; read-out: concentration giving 50% inhibition of Th17 cell development) was roughly 3 nM. The “Th17 differentiation of cells expressing YFP or no transgene” value ([2]; TAT-Cre treated, TGFβ plus IL-6) was “strongly impaired Th17 differentiation”, the IL-17 production [2, 3] was “strongly reduced” and the “expression of hallmark ER stress response genes” value (Xbp-1 splicing) was “did not induce”. For the same molecule, the Xbp-1 splicing (Xbp-1 splicing) was “without promoting Xbp-1 splicing”.
tunicamycin was tested, and the “Th1 and Th2 differentiation” value [1, 4] was “preferentially impaired Th1 and Th2 differentiation”, the “IL-17 expression in T cells” value [2, 4] was “little influence on IL-17 expression” and the Xbp-1 splicing (Xbp-1 splicing) was “together with Xbp-1 splicing”.

— patent publication US20120058133A1, “INHIBITION OF TRNA SYNTHETASES AND THERAPEUTIC APPLICATIONS THEREOF” (President and Fellows of Harvard College, priority 2009, published 2012)
